Test results from patent US20230085945A1, “ORTHOGONAL SAFETY SWITCHES TO ELIMINATE GENETICALLY ENGINEERED CELLS” (The Board of Trustees of the Leland Stanford Junior …, priority 2020, published 2023).

Experiments:
[1] = tested on: ACTB^HSV-TK-mPlum;NANOG^iCasp9-YFP hPSCs; assay: Quantification of cell death after ganciclovir treatment of hPSCs; type: cell-based, human
Procedure: (§1) FIG. 5: Implementation of the ACTB^TK-mPlum safety switch. A) NANOG^iCasp9-YFP;ACTB^TK-mPlum hESCs were treated with ganciclovir (or left untreated) for 24 hours, and subsequently ganciclovir was withdrawn and hESCs were cultured for 1 week in mTeSR1 to detect any surviving cells and to allow them to regrow. […] N.D.=not detected. B) NANOG^iCasp9-YFP;ACTB^TK-mPlum hESCs were differentiated into day 6 liver, sclerotome and neural progenitors and treated with ganciclovir at the indicated doses for the last 24 hours of differentiation. Cell survival was analyzed by counting at day 6 of differentiation. C) 10^6 NANOG^iCasp9-YFP; ACTB^TK-mPlum hESCs engineered to express CAG-AkaLuciferase were treated with control media or 1 nM AP20187 for 24 hours, and then subcutaneously transplanted into the right and left dorsal flanks of NOD-SCID Il2rg^−/− mice (10^6 cells per flank). After 3 weeks post-transplant, teratomas formed in vivo and ganciclovir was administered daily at 50 mg/kg until week 7 post-transplant. Bioluminescent imaging of mice was conducted weekly for 7 weeks. Total flux (photons/sec) was measured for each animal and were averaged.
Quantification of cell death after ganciclovir treatment. […] At the end of 6 days of culture in mTeSR1 alone, the number of surviving live cells was counted.

[2] = tested on: ACTB^HSV-TK-mPlum;NANOG^iCasp9-YFP hPSC-derived liver, bone and forebrain progenitors; assay: Ganciclovir treatment of differentiated progenitors, cell counting at day 6; type: cell-based, human; settings: ganciclovir for last 24 hours of differentiation
[3] = tested on: teratomas from ACTB^HSV-TK-mPlum;NANOG^iCasp9-YFP hPSCs; assay: Elimination of teratomas using ganciclovir in vivo (bioluminescent imaging); set-up: species or system NSG mice; settings: week 7 post-transplantation, 4 weeks after initiating ganciclovir 50 mg/kg daily
Procedure: as §1, with “After 3 weeks post-transplant, teratomas formed in vivo and ganciclovir was administered daily at 50 mg/kg until week 7 post-transplant. Bioluminescent imaging of mice was conducted weekly for 7 weeks.” left out
FIG. 10: Supporting data for ACTB^TK-mPlum safety switch (related to FIGS. 4-5). […] Total flux (photons/sec) was measured for each animal.
Bioluminescent imaging. […] Subsequent image analysis was done in Aura with regions of interest (ROIs) drawn for each mouse to calculate Total Flux (photons/sec) in order to quantify teratoma growth over time. […]

[4] = tested on: ACTB^OiCasp9-mPlum;NANOG^iCasp9-YFP hPSCs and differentiated liver, bone and neural progenitors; assay: Killing of ACTB^OiCasp9-mPlum;NANOG^iCasp9-YFP hPSCs and differentiated derivatives by AP21 or AP20 (alamar blue); type: cell-based, human; settings: dual-transgenic line; 1 nM, 24 hours
Procedure: FIG. 6: Rationale, design and implementation of the ACTB^OiCasP9-mPlum safety switch. A) Intended application of the dual ACTB^OiCasp9-mPlum;NANOG^iCasp9-YFP safeguard. B) Cas9 RNP/AAV6-based knock-in strategy for ACTB^iCasp9-mPlum targeting, which was performed in the NANOG^iCasp9-YFP hESC line. C) 5×10^5 ACTB^OiCasp9-mPlum; NANOG^iCasp9-YFP hESCs were treated with control media or 1-1000 nM AP21967 for 24 hours. Cell viability was analyzed using alamar blue. D) ACTB^OiCasp9-mPlum;NANOG^iCasp9-YFP and ACTB^TK-mPlum; NANOG^iCasp9-YFP hESCs (negative control), in addition to their respective differentiated derivatives, were treated for 24 hours with 1 nM of AP21967. E) 5×10^5 ACTB^OiCasp9-mPlum; NANOG^iCasp9-YFP hESCs, and their respective differentiated derivatives, were treated with control media, 1 nM of AP21967 or and 1 nM of AP20187 for 24 hours. Surviving cells were analyzed by alamar blue. F) 10^6 ACTB^OiCasp9-mPlum;NANOG^iCasp9-YFP hESCs engineered to express CAG-AkaLuciferase were treated with control media or 1 nM AP20187 for 24 hours, and then subcutaneously transplanted into the right and left dorsal flanks of NOD-SCID Il2rg^−/− mice (10^6 cells per flank). 4 weeks post-transplant, teratomas formed and AP21967 was intraperitoneally administered once at 10 mg/kg. […] Total flux (photons/sec) was measured for each animal and was averaged.

[5] = tested on: ACTB^TK-mPlum;NANOG^iCasp9-YFP hESCs (iCaspase9-expressing cells); assay: AP21967 treatment of iCaspase9-expressing cells (cross-reactivity check); type: cell-based, human; settings: AP21967 24 hours
[6] = tested on: H9 undifferentiated hPSCs and hPSC-derived neural, liver, and sclerotome cells; assay: YM155 treatment, cell viability by alamar blue; type: cell-based, human; settings: YM155 10 nM or 2 μM, 24 hours
Text: FIG. 7: Marker expression during hPSC differentiation and evaluation of past safety switches (related to FIG. 2). A) i) Flow cytometry analysis of widely-used pluripotency surface markers SSEA-3, SSEA-4, TRA-1-60, TRA-1-81 and PODXL1^20,21 before and during differentiation into endodermal, mesodermal and ectodermal lineages for 1-6 days. Positive gates were set based on unstained negative controls. ii) Gene expression analysis of previously reported safety system genes CDK1, TERT, SCD1, PODXL1 and SURVIVIN before and during differentiation into endodermal, mesodermal and ectodermal lineages. Expression of lineage markers is depicted normalized to the reference gene YWHAZ (i.e., YWHAZ=1.0). B) Widely-used pluripotency surface markers such as SSEA-3, SSEA-4, TRA-1-60, TRA-1-81 and PODXL1^20,21 were not exclusive to pluripotent cells. […] Unstained hESCs (top row; grey shading) were used as a negative control to set positive gates (dotted vertical lines). […] D) H9 undifferentiated hPSCs and hPSC-derived neural, liver, and sclerotome cells (generated after 6 days of differentiation) were treated for 24 hours with YM155 (either 10 nM or 2 μM), a small molecule SURVIVIN inhibitor, and cell viability was assessed using alamar blue.

Compound: Nc1nc(O)c2ncn(COC(CO)CO)c2n1 [ganciclovir]
- in vitro proliferation of hPSCs ([1]; ganciclovir 24 hours, then 1 week in mTeSR1): broadly blocked the in vitro proliferation
- cell death in hPSCs ([1]; three days post-GCV treatment (0.5-2 μM, 24 hours)): cell death was observed
- in vitro proliferation of derivative liver, bone and forebrain progenitors [2]: broadly blocked the in vitro proliferation
- detectable teratomas by bioluminescent imaging [3]: no ganciclovir-treated mice had detectable teratomas

Compound: CO[C@H]1[C@@H](O)[C@H](C)C[C@H](C)/C=C/C=C/C=C(\C)[C@@H](c2c[nH]c3c(C)cccc23)C[C@@H]2CC[C@@H](C)[C@@](O)(O2)C(=O)C(=O)N2CCCC[C@H]2C(=O)O[C@H]([C@H](C)C[C@@H]2CC[C@@H](O)[C@H](OC)C2)C[C@H](O)[C@H](C)/C=C(\C)[C@H]1O [AP21]
- killing of undifferentiated and differentiated cells [4]: kill both undifferentiated hPSCs and differentiated liver, bone and neural progenitors
- killing of iCaspase9-expressing cells [5]: does not kill iCaspase9-expressing cells

Compound: COCCn1c2c([n+](Cc3cnccn3)c1C)C(=O)c1ccccc1C2=O [YM155]
- cell killing (viability) [6]: killed both undifferentiated and differentiated hPSCs
